Laboratory results as given in ChEMBL document CHEMBL1201862, “PubChem BioAssay data set” (2004).
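Where inhibition never reached the appropriate level, the endpoint shown equals the highest concentration tested. Otherwise, values were interpolated linearly from a five-concentration, 48-hour dose response in 96-well plates. GI50 marks 50% less growth.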 Active and inactive are the calls of the source. No stated cut-off is given here; in the data, active = GI50 up to about 1.1 µM and inactive = higher.

Experiments:
Assay in all cases: NCI tumour cell line growth inhibition, 48 h
M19-MEL = tested on: M19-MEL
DMS-114 = tested on: DMS-114
CCRF-CEM = tested on: CCRF-CEM
OVCAR-5 = tested on: OVCAR-5
LXFL 529 = tested on: LXFL 529
NCI-H460 = tested on: NCI-H460
OVCAR-4 = tested on: OVCAR-4
SK-OV-3 = tested on: SK-OV-3
SF-295 = tested on: SF-295
KM-20L2 = tested on: KM-20L2
NCI-H23 = tested on: NCI-H23
SK-MEL-28 = tested on: SK-MEL-28
KM12 = tested on: KM12
HOP-62 = tested on: HOP-62
RXF 393 = tested on: RXF 393
UACC-257 = tested on: UACC-257
HL-60 = tested on: HL-60
K562 = tested on: K562
SN12C = tested on: SN12C
RPMI-8226 = tested on: RPMI-8226
EKVX = tested on: EKVX
SF-268 = tested on: SF-268
SF-539 = tested on: SF-539
HOP-18 = tested on: HOP-18
OVCAR-8 = tested on: OVCAR-8
MOLT-4 = tested on: MOLT-4
HCC 2998 = tested on: HCC 2998
NCI-H226 = tested on: NCI-H226
OVCAR-3 = tested on: OVCAR-3
TK-10 = tested on: TK-10
XF498 = tested on: XF498
HCT-116 = tested on: HCT-116
ACHN = tested on: ACHN
786-0 = tested on: 786-0
HCT-15 = tested on: HCT-15
U-251 = tested on: U-251
A549 = tested on: A549
SNB-75 = tested on: SNB-75
COLO 205 = tested on: COLO 205
SNB-78 = tested on: SNB-78
SK-MEL-2 = tested on: SK-MEL-2
HOP-92 = tested on: HOP-92
CAKI-1 = tested on: CAKI-1
SNB-19 = tested on: SNB-19
M14 = tested on: M14
UO-31 = tested on: UO-31
UACC-62 = tested on: UACC-62
SW-620 = tested on: SW-620
SR = tested on: SR
HT-29 = tested on: HT-29
IGROV-1 = tested on: IGROV-1

SMILES: C/C(CCN(C)C)=N/O
- GI50 (M19-MEL): 0.798 µM (active)
- GI50 (DMS-114): 0.8 µM (active)
- GI50 (CCRF-CEM): 0.194 µM (active)
- GI50 (OVCAR-5): 18.7 µM (inactive)
- GI50 (LXFL 529): 0.346 µM (active)
- GI50 (NCI-H460): 1.64 µM (inactive)
- GI50 (OVCAR-4): < 0.01 µM (active)
- GI50 (SK-OV-3): 17.9 µM (inactive)
- GI50 (SF-295): 26.8 µM (inactive)
- GI50 (KM-20L2): 8.47 µM (inactive)
- GI50 (NCI-H23): 8.32 µM (inactive)
- GI50 (SK-MEL-28): 7.13 µM (inactive)
- GI50 (KM12): 12.5 µM (inactive)
- GI50 (HOP-62): 1.77 µM (inactive)
- GI50 (RXF 393): 6.05 µM (inactive)
- GI50 (UACC-257): 15.7 µM (inactive)
- GI50 (HL-60): 0.281 µM (active)
- GI50 (K562): 0.292 µM (active)
- GI50 (SN12C): 14.3 µM (inactive)
- GI50 (RPMI-8226): 0.313 µM (active)
- GI50 (EKVX): 1.55 µM (inactive)
- GI50 (SF-268): 1.49 µM (inactive)
- GI50 (SF-539): 1.14 µM (inactive)
- GI50 (HOP-18): 0.4 µM (active)
- GI50 (OVCAR-8): 0.826 µM (active)
- GI50 (MOLT-4): 0.328 µM (active)
- GI50 (HCC 2998): 1.16 µM (inactive)
- GI50 (NCI-H226): 30 µM (inactive)
- GI50 (OVCAR-3): 1.29 µM (inactive)
- GI50 (TK-10): 7.73 µM (inactive)
- GI50 (XF498): 17.8 µM (inactive)
- GI50 (HCT-116): 0.531 µM (active)
- GI50 (ACHN): 0.918 µM (active)
- GI50 (786-0): 2.81 µM (inactive)
- GI50 (HCT-15): 11.7 µM
- GI50 (U-251): 6.59 µM (inactive)
- GI50 (A549): 1.6 µM (inactive)
- GI50 (SNB-75): 16.8 µM (inactive)
- GI50 (COLO 205): 0.597 µM (active)
- GI50 (SNB-78): 15.8 µM (inactive)
- GI50 (SK-MEL-2): 16.5 µM (inactive)
- GI50 (HOP-92): 9.44 µM (inactive)
- GI50 (CAKI-1): 1.02 µM (active)
- GI50 (SNB-19): 35.9 µM (inactive)
- GI50 (M14): 0.859 µM (active)
- GI50 (UO-31): 16 µM (inactive)
- GI50 (UACC-62): 1.15 µM (inactive)
- GI50 (SW-620): 2.71 µM (inactive)
- GI50 (SR): 0.281 µM (active)
- GI50 (HT-29): 0.658 µM (active)
- GI50 (IGROV-1): 18.9 µM (inactive)
